Reference: patent US12054509B2, “Antimicrobial compounds, compositions, and uses thereof” (Lakewood Amedex, Inc., priority 2017, dated 2024)
≈ marks a conversion by molar mass, not a printed value. Read-outs that look alike come from different tables or passages of the source.

How the values were obtained:
Format in all cases: cell-based
[1] = test system: methicillin susceptible S. aureus (ATCC 29213); assay: Bacterial cytological profiling at pH 4, 5.5, 7 (Example 8), S. aureus
Method: (§1) This bacterial cytological profiling (BCP) investigation uses methods and materials described previously by Nonejuie, P., Burkart, M., Poglianoa, K., Pogiano, J. (2013). Bacterial cytological profiling rapidly identifies the cellular pathways targeted by antibacterial molecules. Proc. Natl. Acad. Sci. U.S.A. 110(40):16169-16174. doi: 10.1073/pnas.1311066110.
(§2) For viable cell counts, cells are grown to OD600≈0.4 and diluted 1:1 into buffered or unbuffered media containing various compound concentrations. Samples are then collected and serially diluted (1:10) on a 96 well plate. Five microliters from each well are spotted on LB plates, incubated at 30° C., and viable cells are counted the next day.
(§3) Samples are collected at 10, 30, 120, and 240 min of exposure for viable cell count and imaging. For imaging, E. coli and S. aureus 200 μL of treated cells per time point are stained with 0.8 μg/mL FM4-64, 1.5 μg/mL DAPI, and 0.4 μM SYTOXGreen (Molecular Probes/Invitrogen). P. aeruginosa samples are stained 0.4 μM SYTOX Green, 28 μg/mL DAN, and 1 μg/mL FM 4-64. Cells are transferred to an agarose pad (20% LB, 1% agarose) for imaging.
(§4) For Nu-3 and Nu-8 stocks (at pH 4, 5.5 and 7), stock concentration is 500 mg/mL. For pH 4, the stocks are prepared by dissolving Nu-3 in 25 mM citrate buffer and Nu-8 in 350 mM citric acid. For pH 5.5, the stocks are prepared by dissolving Nu-3 in 25 mM citric-phosphate and Nu-8 in 25 mM critic. For pH 7, the stocks are prepared by dissolving Nu-3 and Nu-8 in 25 mM Sorensen phosphate buffer. 2×LB (lysogeny broth) solutions are prepared with 50 mM citrate buffer for pH 4, 50 mM citrate-phosphate buffer for pH 5.5, and 50 mM Sorensen phosphate buffer for pH 7.

[2] = test system: wild type E. coli (ATCC 25922); assay: Bacterial cytological profiling at pH 4, 5.5, 7 (Example 8), E. coli
Method: as §1, §2, §3, §4

E. coli (ATCC 25922) = assay: Time kill assay in saline at pH 3.5 (Example 27); settings: for Log10 CFU/mL: pH 3.5
Method: Log10 5 CFU of E. coli (ATCC 25922) were suspended in saline. Additionally, a sample of the saline only was prepared as a vehicle control (V.C.). Solutions of Nu-3, Nu-8, and Nu-10 at varying concentrations were adjusted to pH 3.5 with citric acid and added to the E. coli suspensions. At each time point (0, 1, 2.5, 5, 10, and 20 minutes), the treated bacterial suspensions were plated and incubated for 24 hrs, and each plate was read to determine the CFU count.
Tables 12-14 provide the time kill assay data for Nu-3 (Table 12), Nu-8 (Table 13) and Nu-10 (Table 14) against E. coli.

P. aeruginosa K2732 = assay: Bacterial cytological profiling (Example 6), P. aeruginosa; settings: BCP;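 further: tested at 1 0.5 and 0.25 times MIC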
Method: as §1, with “study” for “investigation”
(§5) Wild type strains of E. coli ATCC 25922 or P. aeruginosa K2732 are grown in rich media (unbuffered 2× Lysogeny broth [LB]) at 30 C to an OD600˜0.4. These cultures are then split and each sample treated with the appropriate concentration of Nu-8 in unbuffered or buffered LB (final mixture OD600˜0.1). Cells exposed without Nu-8 are buffered to pH 4 with phosphoric acid.
(§6) The BCP is performed in LB media buffered to pH 4. The minimum inhibitory concentration (MIC) is measured for Nu-3, Nu-4, Nu-5, and Nu-8 against each bacterial strain. As one of ordinary skill in the art understands, minimum inhibitory concentrations are the lowest concentration of an antimicrobial that will inhibit the visible growth of a microorganism after overnight incubation. […] Cellular viability is assayed at three time points (5 minutes and 4 and 24 h following the onset of treatment).
(§7) For imaging E. coli, treated cells are stained with 1 μg/Ml FM4-64, 2 μg/mL DAPI, and 0.5 μM SYTOXGreen (Molecular Probes/Invitrogen). P. aeruginosa samples are stained 0.5 μM SYTOX Green, 28 μg/mL DAPI, and 4.5 μg/mL FM 4-64. Cells are transferred to an agarose pad (20% LB, 1% agarose) for imaging as described in Pogliano, J., Osborne, N., Sharp, M. D., Abanes-De Mello, A., Perez, A., Sun, Y.-L. and Pogliano, K. (1999), A vital stain for studying membrane dynamics in bacteria: a novel mechanism controlling septation during Bacillus subtilis sporulation. Molecular Microbiology, 31: 1149-1159. doi:10.1046/j.1365-2958.1999.01255.x.

E. coli ATCC 25922 = assay: Bacterial cytological profiling (Example 6), E. coli;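 on cell wall deformations: tested at 1 0.5 and 0.25 times MIC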;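 on effect on cell envelope: tested at 1 0.5 and 0.25 times MIC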
Method: as §1, with “study” for “investigation”
as §5, §6, §7

Candida Albicans = assay: MIC against a single isolate (Example 26); settings: read-out: C. albicans MIC
Method: (§8) Bacterial strains evaluated in this study include Escherichia coli, Klebsiella spp, Serratia marcescens, Proteus mirabilis/vulgaris, Citrobacter spp, Providencia spp, Morganella morganii, Pseudomonas aeruginosa, Staphylococcus aureus (MRSA only), and Enterococcus faecalis. Nu-8 test solutions are adjusted to pH 3.5 with citric acid, and MIC is evaluated per the CLSI methods in Mueller-Hinton broth supplemented accordingly to facilitate growth of specific strains.
(§9) MIC was determined as per Example 9 using LAI-101, LAI-102, Nu-10, LAI-105, LAI-106, Nu-3, and Nu-8 against a single isolate of Escherichia coli. Pseudomonas aeruginosa, Staphylococcus aureus (MRSA only), and Candida Albicans. For all microbe species, the LAI-101, LAI-102, Nu-10, LAI-105, and LAI-106 all perform at least as well as, and in many experiments better than, Nu-8 and Nu-3, which are both already quite active compounds.

Escherichia coli = assay: MIC against a single isolate (Example 26); settings: read-out: E. coli MIC
Method: as §8, §9

[3] = test system: Staphylococcus aureus (MRSA only); assay: MIC against a single isolate (Example 26); settings: read-out: S. aureus MIC
Method: as §8, §9

Pseudomonas aeruginosa = assay: MIC against a single isolate (Example 26); settings: read-out: P. aeruginosa MIC
Method: as §8, §9

[4] = test system: wild type P. aeruginosa (PAO1; K2732); assay: Bacterial cytological profiling at pH 4, 5.5, 7 (Example 8), P. aeruginosa; settings: pH 5.5 and 7; 112.5 mg/mL
Method: as §1, §2, §3, §4

Compound: CCCCOP(=O)(O)OC[C@H]1O[C@@H](n2cc(C)c(=O)[nH]c2=O)C[C@@H]1OP(=O)(O)OCCCC [Nu-3, reference compound]
- cell growth ([1]; pH 4, 125 mg/mL): slight reduction in cell growth
- cell permeability ([1]; pH 4, 125 mg/mL): < 10%
- cell permeability ([1]; pH 4, 250 mg/mL): < 10%
- cell growth ([1]; pH 5.5 and 7, 125 mg/mL and 250 mg/mL, up to 24 h): slightly reduce cell growth
- cell viability (cell growth delay) ([2]; pH 4, 112.5 mg/mL, up to 240 min): 10^7 CFR/mL
- effect on cell permeability, viability and growth ([2]; pH 5.5 and 7): ineffective
- Log10 CFU/mL (E. coli (ATCC 25922); 2.5% solution, 0 min): 5.20 Log10 CFU/mL
- Log10 CFU/mL (E. coli (ATCC 25922); 2.5% solution, 1 min): 3.38 Log10 CFU/mL
- Log10 CFU/mL (E. coli (ATCC 25922); 2.5% solution, 2.5 min): 2.55 Log10 CFU/mL
- Log10 CFU/mL (E. coli (ATCC 25922); 2.5% solution, 5 min): 1.99 Log10 CFU/mL
- Log10 CFU/mL (E. coli (ATCC 25922); 2.5% solution, 10 min): 0.00 Log10 CFU/mL
- Log10 CFU/mL (E. coli (ATCC 25922); 2.5% solution, 20 min): 0.00 Log10 CFU/mL
- Log10 CFU/mL (E. coli (ATCC 25922); 5% solution, 0 min): 5.20 Log10 CFU/mL
- Log10 CFU/mL (E. coli (ATCC 25922); 5% solution, 1 min): 3.00 Log10 CFU/mL
- Log10 CFU/mL (E. coli (ATCC 25922); 5% solution, 2.5 min): 2.10 Log10 CFU/mL
- Log10 CFU/mL (E. coli (ATCC 25922); 5% solution, 5 min): 0.00 Log10 CFU/mL
- Log10 CFU/mL (E. coli (ATCC 25922); 5% solution, 10 min): 0.00 Log10 CFU/mL
- Log10 CFU/mL (E. coli (ATCC 25922); 5% solution, 20 min): 0.00 Log10 CFU/mL
- Log10 CFU/mL (E. coli (ATCC 25922); 10% solution, 0 min): 5.20 Log10 CFU/mL
- Log10 CFU/mL (E. coli (ATCC 25922); 10% solution, 1 min): 2.85 Log10 CFU/mL
- Log10 CFU/mL (E. coli (ATCC 25922); 10% solution, 2.5 min): 0.00 Log10 CFU/mL
- Log10 CFU/mL (E. coli (ATCC 25922); 10% solution, 5 min): 0.00 Log10 CFU/mL
- Log10 CFU/mL (E. coli (ATCC 25922); 10% solution, 10 min): 0.00 Log10 CFU/mL
- Log10 CFU/mL (E. coli (ATCC 25922); 10% solution, 20 min): 0.00 Log10 CFU/mL
- time to complete kill of the bacteria (E. coli (ATCC 25922); concentration of 10%): ≤ 2.5 min
- effect on cell envelope (P. aeruginosa K2732): affect the cell envelope
- effect on cell envelope (E. coli ATCC 25922; BCP): affect the cell envelope
- DNA condensation (E. coli ATCC 25922; higher treatment concentrations, buffered pH 4): causes DNA condensation
- cell wall deformations (E. coli ATCC 25922; unbuffered LB): cause cell wall deformations
- MIC (Candida Albicans; single isolate): 25 mg/mL (≈ 48.6 mM)
- MIC (Escherichia coli; single isolate): 25 mg/mL (≈ 48.6 mM)
- MIC ([3]; single isolate): > 50 mg/mL
- MIC (Pseudomonas aeruginosa; single isolate): 25 mg/mL (≈ 48.6 mM)
- cell growth [4]: no effect on cell growth
- increase/change in cell permeability [4]: < 6%

Compound: CC(C)COP(=O)(O)OC[C@H]1O[C@@H](n2ccc(N)nc2=O)C[C@@H]1OP(=O)(O)OCC(C)C [LAI-101, ((2R,3S,5R)-5-(4-amino-2-oxopyrimidin-1(2H)-yl)-3-((hydroxy(isobutoxy)phosphoryl)-oxy)tetrahydrofuran-2-yl)methyl isobutyl hydrogen phosphate]
- MIC (Candida Albicans): 50 mg/mL
- MIC (Escherichia coli): 5 mg/mL
- MIC [3]: 5 mg/mL
- MIC (Pseudomonas aeruginosa): 5 mg/mL

Compound: Nc1ccn([C@H]2C[C@H](OP(=O)(O)OCc3ccccc3)[C@@H](COP(=O)(O)OCc3ccccc3)O2)c(=O)n1 [LAI-102, ((2R,3S,5R)-5-(4-amino-2-oxopyrimidin-1(2H)-yl)-3-(((benzyloxy)(hydroxy)-phosphoryl)oxy)tetrahydrofuran-2-yl)methyl benzyl hydrogen phosphate]
- MIC (Candida Albicans): 50 mg/mL
- MIC (Escherichia coli): 5 mg/mL
- MIC [3]: 25 mg/mL
- MIC (Pseudomonas aeruginosa): 25 mg/mL
